Values quoted from earlier work as cited in paper PMC7400577 (Scientific Reports, 2020).

Columns and labels:
hGAT2 = target: T1, hGAT2 (Homo sapiens, UniProt Q9NSD5); conditions: [3H]GABA uptake, recombinant hGAT2; adapted from Al-Khawaja et al.; cited from earlier work
T1 construct: expressed in transfected cells
T1 sequence (Q9NSD5 1-602): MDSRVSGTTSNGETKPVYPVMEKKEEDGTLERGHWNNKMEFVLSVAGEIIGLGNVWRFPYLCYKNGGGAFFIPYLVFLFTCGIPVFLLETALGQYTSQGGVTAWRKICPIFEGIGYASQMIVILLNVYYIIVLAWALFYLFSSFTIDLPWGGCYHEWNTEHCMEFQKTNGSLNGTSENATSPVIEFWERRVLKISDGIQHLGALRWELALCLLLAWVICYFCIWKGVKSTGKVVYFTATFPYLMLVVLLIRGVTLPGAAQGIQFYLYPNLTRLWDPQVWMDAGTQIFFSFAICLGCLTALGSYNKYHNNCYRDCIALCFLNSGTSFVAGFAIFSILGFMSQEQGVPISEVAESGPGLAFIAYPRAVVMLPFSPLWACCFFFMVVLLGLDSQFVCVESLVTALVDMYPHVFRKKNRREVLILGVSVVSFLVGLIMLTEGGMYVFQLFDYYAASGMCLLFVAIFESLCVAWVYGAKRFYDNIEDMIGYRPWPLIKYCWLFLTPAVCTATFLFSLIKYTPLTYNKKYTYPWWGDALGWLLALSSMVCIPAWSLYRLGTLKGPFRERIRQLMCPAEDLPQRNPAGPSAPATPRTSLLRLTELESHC

hBGT1 = target: T2, hBGT1 (Homo sapiens, UniProt P48065); conditions: previously demonstrated; cited from earlier work
T2 construct: expressed in transfected cells
T2 sequence (P48065 1-614): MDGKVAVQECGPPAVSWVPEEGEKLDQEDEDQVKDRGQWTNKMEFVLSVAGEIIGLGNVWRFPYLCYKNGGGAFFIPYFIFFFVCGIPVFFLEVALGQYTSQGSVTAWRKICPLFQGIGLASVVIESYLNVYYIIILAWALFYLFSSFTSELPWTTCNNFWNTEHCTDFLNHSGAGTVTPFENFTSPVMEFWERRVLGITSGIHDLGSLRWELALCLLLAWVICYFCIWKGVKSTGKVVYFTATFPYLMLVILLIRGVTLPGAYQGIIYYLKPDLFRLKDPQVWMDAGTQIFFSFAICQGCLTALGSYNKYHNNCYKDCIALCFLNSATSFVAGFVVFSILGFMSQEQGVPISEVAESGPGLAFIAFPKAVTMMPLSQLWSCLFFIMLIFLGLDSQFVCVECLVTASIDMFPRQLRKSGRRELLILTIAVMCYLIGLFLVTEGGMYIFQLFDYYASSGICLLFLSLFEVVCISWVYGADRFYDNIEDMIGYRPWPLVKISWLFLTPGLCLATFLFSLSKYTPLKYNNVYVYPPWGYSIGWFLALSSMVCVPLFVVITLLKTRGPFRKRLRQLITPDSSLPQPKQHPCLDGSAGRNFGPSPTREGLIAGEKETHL

SMILES: NC1=NCC(C(=O)O)CN1 (stereo not drawn) [ATPCA, 2-amino-1,4,5,6-tetrahydropyrimidine-5-carboxylic acid, reference compound]
- IC50 (hGAT2): 41 µM
- pIC50 ± S.E.M. hGAT2 (hGAT2): 4.39 ± 0.09
- substrate character at hBGT1 in FMP assay (hBGT1): substrate for hBGT1
